# In patent publication US20150231276A1, “ROLE OF DH44 AND HOMOLOGS IN CALORIE SENSING” (New York University, priority 2014, published 2015):
# “Also recorded” adds a separate entry of the source. Where two headings read alike, the source gives them in different places.
# Assays:
# Dh44+ cells [1] = assay: Ca2+ imaging (GCaMP3.0) of Dh44+ cell activity in response to sugars, ex vivo fly brains; format: cell-based, Drosophila melanogaster; conditions: for activation of Dh44+ cells: perfusion of sugar, brains of PDh44 GAL4>UAS-GCaMP3.0 flies, D-glucose 5, 20, 80 mM; for peak amplitude, oscillation number and frequency of Dh44+ cells activation: non-metabolized sugar treatment
# Dh44+ cells [2] = assay: Ex vivo destaining experiment: Dh44 peptide release quantified by αDh44 immunofluorescence; format: cell-based, Drosophila melanogaster; conditions: for release of the Dh44 peptide (amount of Dh44 peptide left inside Dh44+ cells): brains of 18 h-food deprived flies incubated in AHL + sugar 80 mM for 30′, compared with saline (AHL)
# [3] = test system: CRH neurons in paraventricular nucleus (PVN); assay: Whole-cell patch-clamp recordings of glucose sensing response in brain slices; format: cell-based, mice; design: Input R: unit not given here
# Procedure: Whole-cell patch-clamp recordings from CRH neurons in paraventricular nucleus (PVN) slice preparation and data analysis were performed as previously described (ref).
# Briefly, 3 to 5 week old of either male or female mice were anesthetized with isoflurane and transcardially perfused with a modified ice-cold artificial CSF (ACSF) in which NaCl was substituted with an equal molar concentration of sucrose (described below). Then, the mice was decapitated, and the entire brain was removed and then immediately immersed in ice-cold ACSF (220 mM sucrose, 2.5 mM KCl, 5.0 mM MgCl2, 1.0 mM CaCl2, 1.0 mM NaH2PO4, 26 mM NaHCO3, and 10 mM glucose), saturated with 95% O2 and 5% CO2. A brain block containing PVN was mounted on a stage and coronal sections (250 um) were cut with a Leica Vibratome. The sectioned slices were then incubated in oxygenated ACSF at 34° C. for at least 1 hour before recording. The slices were transferred into recording chamber and bathed in oxygenated ACSF. The solution flowing the recording chamber was consists of: (126 mM NaCl, 26 mM NaHCO3, 2.8 mM KCl, 2.5 mM CaCl2, 1.25 mM NaH2PO4, 1.2 mM MgSO4, and 5 mM or 2.5 mM glucose). The pipette solution for whole-cell recording was modified to include an intracellular dye (Alexa Fluor 488): 120 mM K-gluconate, 10 mM KCl, 10 mM HEPES, 5 mM EGTA, 1 mM CaCl2, 1 mM MgCl2, and 2 mM MgATP, 0.03 mM Alexa Fluor 488 dye, pH 7.3. Electrophysiological signals were recorded using an […] amplifier (Molecular Devices), low-pass filtered at 2-5 kHz, and analyzed offline on a PC with pCLAMP programs (Molecular Devices). Recording electrodes had resistances of 4.0-6.0 MΩ when filled with K-gluconate pipette solution.
# As the cells to be targeted illuminate red fluorescence from td-tomato, the pipette with positive pressure was attached to cell membrane, which was subsequently giga-sealed by brief negative pressure, before making a tiny hole with more negative pressure to perform whole-cell recordings. Only cells with a whole-cell resistance below 15 MΩ and with a stable resting membrane potential within 1 min were selected and carried out recording. […] At the end of a stable trace, its input resistance was assessed by measuring the voltage deflection to hyperpolarizing rectangular current pulse steps (500 ms of −10 to −50 pA). […] Depending on the cells, it took 1-5 min to change the membrane potential and firing rate. After stabilizing the change in electrophysiological response, input resistance was assessed in the same way as previously described. […] (For most CRH neurons as GE neurons, it took more than 10 min to recover after the response.)
# [4] = Table 2, glucose back to 2.5 mM
smiles,measurement,setting,value
O=C1NC(=O)C(=O)C(=O)N1 [Alloxan],oscillations of Dh44+ cells,Dh44+ cells [1]; D-glucose + Alloxan perfusion,almost complete disappearance
same,peak amplitude of activation of Dh44+ cells,Dh44+ cells [1]; D-glucose + Alloxan perfusion,dramatic decrease
same,effect on D-glucose-mediated activity (Ca++ influx) of Dh44+ cells,"Dh44+ cells [1]; agent added to the D-glucose solution, Alloxan 4 μM",greatly suppressed
same,effect on D-glucose-induced Dh44 neuropeptide release,"Dh44+ cells [2]; agent together with D-glucose, ex vivo",did not result in the release; also recorded: reduction
O=C[C@H](O)[C@@H](O)[C@H](O)[C@H](O)CO [D-glucose],activation of Dh44+ cells,Dh44+ cells [1],robust and persistent activation; also recorded: robustly activated
same,f,"[3]; Table 1 (FIGS. 10A-10B), glucose 5 mM, first",0.64 HZ
same,Input R,"[3]; Table 1, glucose 2.5 mM",1.25
same,RMP,"[3]; Table 1, glucose 2.5 mM",−65.8874 mV
same,f,"[3]; Table 1, glucose 2.5 mM",0.02 HZ
same,Input R,"[3]; Table 1, glucose 5 mM",1.40
same,Rev P,"[3]; Table 1, glucose 5 mM to 2.5 mM",−222.95 mV
same,RMP,"[3]; Table 1, glucose 5 mM, first",−49.5691 mV
same,RMP,"[3]; Table 1, glucose back to 5 mM",−57.9124 mV
same,f,"[3]; Table 1, glucose back to 5 mM",0.65 HZ
same,Rev P,[3]; Table 2,−169 mV
same,f,"[3]; Table 2 (FIGS. 11A-11B), glucose 2.5 mM, first",0.64 HZ
same,Input R,"[3]; Table 2, column headed glucose 2.5 mM",2.66
same,Input R,"[3]; Table 2, column headed glucose 5 mM",2.82
same,RMP,"[3]; Table 2, glucose 2.5 mM, first",−60.5911 mV
same,RMP,"[3]; Table 2, glucose 5 mM",−52.4561 mV
same,f,"[3]; Table 2, glucose 5 mM",0.02 HZ
same,RMP,[3]; [4],−59.3806 mV
same,f,[3]; [4],0.65 HZ
same,time to change the membrane potential and firing rate,[3]; after recording solution changed from 5 mM to 2.5 mM glucose,1 to 5 min
same,electrical activity of the CRH neurons,[3]; glucose changed from 2.5 mM to 5 mM,increased
same,electrical activity of the CRH neurons,[3]; glucose changed from 5 mM to 2.5 mM,decreased
same,time to recover after the response,"[3]; recording solution changed back to 5 mM glucose, most CRH neurons",more than 10 min
O=C[C@@H](O)[C@H](O)[C@@H](O)[C@@H](O)CO [L-glucose],"peak amplitude, oscillation number and frequency of Dh44+ cells activation",Dh44+ cells [1],greatly reduced or nearly abolished
same,activation of Dh44+ cells,Dh44+ cells [1],small increase in activity that lacked oscillations
same,release of the Dh44 peptide (amount of Dh44 peptide left inside Dh44+ cells),Dh44+ cells [2],did not result in the release; also recorded: did not induce
"NC1=N[C@H](O)[C@H]2[C@H]3O[C@]4(O)O[C@@H]([C@@H](O)[C@@]2(N1)[C@@H]4O)[C@]3(O)CO [TTX, Tetrodotoxin]",effect on D-glucose-mediated activity (Ca++ influx) of Dh44+ cells,Dh44+ cells [1],small but non-significant effect; also recorded: small but nonsignificant effect
same,effect on D-glucose-induced Dh44 neuropeptide release,Dh44+ cells [2],did not affect
OC[C@H]1O[C@H](O[C@H]2O[C@H](CO)[C@@H](O)[C@H](O)[C@H]2O)[C@H](O)[C@@H](O)[C@@H]1O [trehalose],activation of Dh44+ cells,Dh44+ cells [1],robust and persistent activation; also recorded: robustly activated
"O=CC[C@@H](O)[C@H](O)[C@H](O)CO [2DG, 2-deoxy-D-glucose]","peak amplitude, oscillation number and frequency of Dh44+ cells activation",Dh44+ cells [1],greatly reduced or nearly abolished
same,activation of Dh44+ cells,Dh44+ cells [1],small increase in activity that lacked oscillations
same,release of the Dh44 peptide (amount of Dh44 peptide left inside Dh44+ cells),Dh44+ cells [2],did not result in the release
same,release of the Dh44 peptide (amount of Dh44 peptide left inside Dh44+ cells),Dh44+ cells [2]; listed as D-2′-deoxy-glucose,did not induce
O=C(CO)[C@@H](O)[C@H](O)[C@H](O)CO [D-fructose],activation of Dh44+ cells,Dh44+ cells [1],robustly activated
same,activation of Dh44+ cells,Dh44+ cells [1]; listed as fructose,robust and persistent activation
